{"source": "patent US20250207109A1", "about": "“ENGINEERED SPLIT DHFR-BASED METHODS AND SYSTEMS FOR SELECTING CELLS THAT HAVE STABLY ACQUIRED A HETEROLOGOUS POLYNUCLEOTIDE” (DNA Twopointo, Inc., priority 2022, published 2025)", "molecules": {"B1": {"name": "P7A/P8A coiled coil fusion proteins: P7A / P8A Coiled Coil-Linker-Mouse DHFR (1-105; L22F/F31S) and (106-186) fusion pair (protein)", "chain 1": "MGEIAALEAKNAALKAEIAALEAKNAALKAGCGGGGSGGGGSVRPLNCIVAVSQNMGIGKNGDFPWPPLRNESKYFQRMTTTSSVEGKQNLVIMGRKTWFSIPEKNRPLKDRINIVLSRELKEPPRGAHFLAKSLDDALRLIEQPEL", "chain 2": "MKIAALKAENAALEAKIAALKAENAALEAGGCGGGGSGGGGSASKVDMVWIVGGSSVYQEAMNQPGHLRLFVTRIMQEFESDTFFPEIDLGKYKLLPEYPGVLSEVQEEKGIKYKFEVYEKKD"}}, "type_in_all_cases": "cell-based, human", "key": {"FKBP12.6tr_F36V": {"tested_on": "FKBP12.6tr_F36V", "assay": "Split DHFR complementation assay to show rimiducid-dependent dimerization", "conditions": "cells expressing FKBP12.6tr_F36V-DHFR fragment fusions; rimiducid 100 nM, methotrexate 0.2 μM", "from_the_text": "The Split DHFR concept was employed as the basis of a test of whether a fragment of the human protein FKBP12.6 could dimerize in the presence of rimiducid. For this purpose, an F36V substitution was introduced into FKBP12.6 in an effort to render it sensitive to rimiducid-dependent dimerization as is the case for the paralogous protein FKBP12. See Clackson T, Yang W, Rozamus L W, Hatada M, Amara J F, Rollins C T, Stevenson L F, Magari S R, Wood S A, Courage N L, Lu X, Cerasoli F, Gilman M, Holt D A. Redesigning an FKBP-ligand interface to generate chemical dimerizers with novel specificity. Proc Natl Acad Sci USA. 1998; 95 (18): 10437-42. doi: 10.1073/pnas.95.18.10437.\nThe truncated version of FKBP12.6 carrying the F36V substitution (SEQ ID NO: 192) was fused at its carboxy terminus to the two fragments of murine DHFR as in Example 1, with one of the fragments bearing the L22F and F31S substitutions to confer methotrexate resistance (SEQ ID NOs: 190 and 191). […]\n(§1) At left is the result for cells expressing the DHFR fragments fused to the P7A/P8A heterodimerizing coiled-coil peptides. […] Untransfected cells were analyzed under identical conditions as a control (at right)."}, "Jurkat T lymphoma cells": {"tested_on": "Jurkat T lymphoma cells", "assay": "Methotrexate selection of Jurkat cells co-transfected with pairs of transposons encoding mouse split DHFR fragments, flow cytometry for mTagBFP2/plobRFP", "conditions": "0.1 μM methotrexate; compared with coiled coil pairs", "from_the_text": "Transgenes encoding the six DHFR fusion proteins regulated by the EF1-alpha promoter were each placed in a Leap-In transposon vector that also included a transgene encoding a fluorescent protein. For the transposons expressing the amino-terminal piece of DHFR, the fluorescent protein was mTagBFP2. For the transposons expressing the carboxy-terminal piece, the fluorescent protein was plobRFP. These fluorescent protein transgenes were included so that cells carrying the two kinds of transposons could be readily identified by flow cytometry or fluorescent microscopy.\nJurkat T lymphoma cells were transfected with the appropriate pairs of transposons (i.e., transposons encoding both an amino- and carboxy-terminal piece of DHFR fused to leucine zipper or coiled coil sequences that should associate stably with one another). The ThermoFisher Neon® electroporator was used with 100 μl tips and three pulses of 1350V, each pulse 10 mS in length. […]\nSuccessful methotrexate selection of cells carrying both transfected transposons was evident by the fact that the majority of cells expressed both mTagBFP2 and plobRFP. The cells were analyzed at ten days or six weeks after transfection as indicated."}, "Jurkat cells": {"tested_on": "Jurkat cells", "assay": "Split DHFR complementation assay, methotrexate selection of Jurkat cells expressing DHFR fragment fusion proteins", "conditions": "0.2 μM methotrexate, two weeks; rimiducid 100 nM for FKBP12.6tr pair", "from_the_text": "The truncated version of FKBP12.6 carrying the F36V substitution (SEQ ID NO: 192) was fused at its carboxy terminus to the two fragments of murine DHFR as in Example 1, with one of the fragments bearing the L22F and F31S substitutions to confer methotrexate resistance (SEQ ID NOs: 190 and 191).\nAs a control, the P7A/P8A pair of DHFR fragment fusion proteins (involving SEQ ID Nos: 188 and 189) was also used. Whereas the P7A/P8A pair of constructs co-expressed the DHFR fragments with a red fluorescent protein (RFP; plobRFP) or a blue fluorescent protein (BFP; mTagBFP2), both FKBP12.6 tr transposons carried a BFP transgene.\nJurkat cells were co-transfected by electroporation (ThermoFisher Neon; 100 μl tips; 1350V, three 10 ms pulses) with pairs of plasmids carrying transposons encoding the two DHFR fragments (7.5 μg of each) together with mRNA encoding the Leap-In Transposase® enzyme (2 μg). The cells were plated in RPMI-1640 medium supplemented with fetal bovine serum (10% vol/vol) and methotrexate (0.2 μM). Rimiducid at 100 nM was added to the medium of cells that had been transfected with the FKBP12.6tr pair of plasmids.\nas §1"}}, "data": [{"molecule": "CC[C@H](C(=O)N1CCCC[C@H]1C(=O)O[C@H](CCc1ccc(OC)c(OC)c1)c1cccc(OCC(=O)NCCNC(=O)COc2cccc([C@@H](CCc3ccc(OC)c(OC)c3)OC(=O)[C@@H]3CCCCN3C(=O)[C@@H](CC)c3cc(OC)c(OC)c(OC)c3)c2)c1)c1cc(OC)c(OC)c(OC)c1", "note": "[rimiducid]", "values": [{"measurement": "rimiducid dependence of survival in methotrexate", "setting": "FKBP12.6tr_F36V", "value": "the cells failed to thrive when the drug was removed"}]}, {"molecule": "leucine zipper pair of constructs: GCN4 Leucine Zipper-Linker-Mouse DHFR (1-105; L22F/F31S) and (106-186) fusion pair", "values": [{"measurement": "average level of red and blue fluorescence of selected cells", "setting": "Jurkat T lymphoma cells", "value": "higher average level of both red and blue fluorescence than the pairs involving the coiled coil sequences"}]}, {"molecule": "B1", "values": [{"measurement": "methotrexate resistance / survival of transfected cells", "setting": "Jurkat cells", "value": "conferred methotrexate resistance on the transfected cells"}]}]}
